# Measured values as given in US20160199367A1, “Composition for the prevention or treatment of the symptoms in the stroke comprising the inhibitor of Pin1” (RESEARCH & BUSINESS FOUNDATION SUNGKYUNKWAN UNIVERSITY, priority 2015, published 2016).
# Legend:
# NICD1 protein [1] = experiment: NICD1 protein expression by western blotting in SH-SY5Y cells; assay type: cell-based, human; conditions: 5 μM, treated in combination after overexpression of Pin1, SH-SY5Y, FIG. 1B
# Procedure: In Examples according to the present invention, a human neuroblastoma cell line, SH-SY5Y, and a mouse embryonic fibroblast cell line, an MEF cell, were used. All of the cells were cultured in DMEM (Sigma) media containing 10% fetal bovine serum (Gibco, Welgene, Hyclone) and 1% penicillin/streptomycin.
# A sample was prepared by isolating a protein from cells, and analyzed by 10% sodium dodecyl sulfate (SDS)-polyacrylamide gel electrophoresis using Tris-glycine running buffer. The gel was removed after the electrophoresis, and a transferring process was performed using a transfer buffer containing 0.025 mol/L Tris base, 0.15 mol/L glycine, and 10% (v/v) methanol at 15 V for 1.5 hours to transfer proteins onto a nitrocellulose membrane along an electrical flow. The protein-binding membrane was immersed in blocking buffer (5% non-fat milk in 20 mM Tris-HCl, pH 7.5, 137 mM NaCl, 0.2% Tween-20), and reacted at room temperature for 1 hour. […]
# First, to verify the correlation between the Notch1 signaling activity and Pin1, Pin1 protein was overexpressed with Pin1 cDNA in a human neuroblastoma cell line, SH-SY5Y, and a change in expression of a Notch1 signaling-activation molecule, NICD1 protein, was analyzed by western blotting (WB). […]
# SH-SY5Y cells = experiment: Apoptosis of SH-SY5Y cells under GD or OGD by trypan blue staining; assay type: cell-based, human; conditions: OGD or GD condition for 6 hours or 12 hours, juglone 1.5 μM, PiB 5 μM, DTM 5 μM, FIGS. 5A to 5D
# Procedure: By the method as described in Example 4, SH-SY5Y cells were exposed to OGD or GD conditions to induce apoptosis, and Pin1 inhibitors including juglone were treated to verify a neuroprotective effect.
# SH-SY5Y cells were treated with Pin1 inhibitors such as 5-hydroxy-1,4-naphthoquinone (juglone), diethyl-1,3,6,8-tetrahydro-1,3,6,8-tetraoxobenzo phenanthroline-2,7-diacetate (PiB), and dipentamethylene thiuram monosulfide (DTM) at a concentration each of 1.5, 5 or 5 μM, and exposed to a GD or OGD condition for 6 hours or 12 hours to induce apoptosis, and then stained with trypan blue (0.4%) to quantify a degree of apoptosis.
# [2] = system: middle cerebral artery occlusion (MCAO) animal model; experiment: Neuroprotective effect in MCAO animal model, administration after triggering of ischemic stroke; assay type: in vivo; conditions: mouse, 3 mg/kg once by intravenous injection after MCAO operation, compared to control group
# Excerpt: (§1) A mouse was anesthetized and an epidermis around the neck was incised. The left common carotid artery linked to the left hemisphere was ligated with a surgical suture, and then the external carotid artery was incised to insert a filament thereinto. The filament was pushed into the middle cerebral artery through the internal carotid artery to locally clog the middle cerebral artery, thereby interrupting blood supply to construct an ischemic animal model. After cerebral infarction was induced in the animal model for 1 hour, the filament was removed from the blood vessel (artery), and then the blood was supplied again to the blood vessel, followed by suturing.
# An MCAO operation was conducted on a mouse as described in Example 1-4 to trigger ischemic stroke, and then juglone (3 mg/kg) was administered once to the mouse by intravenous injection. Afterward, the resultant mouse was compared with the control group mouse to which the juglone was not administered.
# NICD1 protein [3] = experiment: NICD1 expression in MCAO mouse brain, administration after stroke (western blotting); assay type: in vivo; conditions: 3 mg/kg once by intravenous injection after MCAO, compared to control group, FIGS. 8C and 8D
# Procedure: (§2) A sample was prepared by isolating a protein from cells, and analyzed by 10% sodium dodecyl sulfate (SDS)-polyacrylamide gel electrophoresis using Tris-glycine running buffer. The gel was removed after the electrophoresis, and a transferring process was performed using a transfer buffer containing 0.025 mol/L Tris base, 0.15 mol/L glycine, and 10% (v/v) methanol at 15 V for 1.5 hours to transfer proteins onto a nitrocellulose membrane along an electrical flow. The protein-binding membrane was immersed in blocking buffer (5% non-fat milk in 20 mM Tris-HCl, pH 7.5, 137 mM NaCl, 0.2% Tween-20), and reacted at room temperature for 1 hour. […] The next day, the membrane was washed with Tris-buffered saline-T (20 mM Tris-HCL, pH 7.5, 137 mM NaCl, 0.2% Tween-20) three times each for 10 minutes. In addition, the membrane was reacted with secondary antibodies at room temperature for 1 hour, washed again three times, and then scanned using an Odyssey® Infrared Imaging System (LI-COR Biosciences) or ECL-plus system to analyze the expression level of each protein.
# (§3) A mouse was anesthetized and an epidermis around the neck was incised. The left common carotid artery linked to the left hemisphere was ligated with a surgical suture, and then the external carotid artery was incised to insert a filament thereinto. […]
# Pin1 protein [4] = experiment: Pin1 expression in left hemisphere of MCAO mouse, administration before MCAO (western blotting); assay type: in vivo; conditions: 3 mg/kg intraperitoneally twice before MCAO, compared to control group, FIGS. 7C and 7D
# Procedure: as §2
# (§4) A mouse was anesthetized and an epidermis around the neck was incised. […]
# (§5) In addition, the left hemisphere of the stroke-triggered mouse was analyzed by western blotting to compare the expressions of NICD1, Pin1 and FBW7 proteins.
# NICD1 ubiquitination = NICD1 ubiquitination by co-immunoprecipitation and western blotting in Pin1-overexpressing SH-SY5Y cells; assay type: cell-based, human; conditions: 1.5 μM, Pin1-overexpressing SH-SY5Y treated with MG132, FIG. 3A
# Excerpt: MYC-tagged NICD1, HA-tagged ubiquitin (Ub), and Pin1 were expressed in SH-SY5Y cell lines, and treated with MG132 to inhibit a proteolytic activity of a 26S proteasome complex. Afterward, HA and FBW7-specific antibodies were used to analyze a degree of NICD1 ubiquitination by co-immunoprecipitation (IP) and western blotting (WB).
# NICD1 protein [5] = experiment: NICD1 expression in primary neuronal cells under GD or OGD by western blotting; assay type: cell-based; conditions: GD or OGD condition, FIGS. 4F and 4G
# Procedure: (§6) A sample was prepared by isolating a protein from cells, and analyzed by 10% sodium dodecyl sulfate (SDS)-polyacrylamide gel electrophoresis using Tris-glycine running buffer. The gel was removed after the electrophoresis, and a transferring process was performed using a transfer buffer containing 0.025 mol/L Tris base, 0.15 mol/L glycine, and 10% (v/v) methanol at 15 V for 1.5 hours to transfer proteins onto a nitrocellulose membrane along an electrical flow. The protein-binding membrane was immersed in blocking buffer (5% non-fat milk in 20 mM Tris-HCl, pH 7.5, 137 mM NaCl, 0.2% Tween-20), and reacted at room temperature for 1 hour. Afterward, the membrane was reacted overnight with primary antibodies, such as Pin1 (R&D, Epitomics), NICD1 (Upstate), MYC (Roche), FBW7 (Bioss), or Actin (Sigma), which specifically bound to each protein whose expression level was to be confirmed, at 4° C. The next day, the membrane was washed with Tris-buffered saline-T (20 mM Tris-HCL, pH 7.5, 137 mM NaCl, 0.2% Tween-20) three times each for 10 minutes. […]
# (§7) Subsequently, primary neuronal cells were cultured under a GD or OGD condition for 12 hours or 24 hours, and then changes in expressions of caspase-3, which is one of the apoptosis signal proteins, and NICD1 protein were analyzed by western blotting.
# FBW7 protein [6] = experiment: FBW7 expression in MCAO mouse brain, administration after stroke (western blotting); assay type: in vivo; conditions: 3 mg/kg once by intravenous injection after MCAO, compared to control group, FIGS. 8C and 8D
# Procedure: as §2, §3
# NICD1 protein [7] = experiment: NICD1 expression in left hemisphere of MCAO mouse, administration before MCAO (western blotting); assay type: in vivo; conditions: 3 mg/kg intraperitoneally twice before MCAO, compared to control group, FIGS. 7C and 7D
# Procedure: as §2, §4, §5
# [8] = system: cleaved caspase-3 (CLCas-3) protein; experiment: Cleaved caspase-3 expression in primary neuronal cells under GD or OGD by western blotting; assay type: cell-based; conditions: GD or OGD condition for 12 hours or 24 hours, FIGS. 4D and 4E
# Procedure: as §6, §7
# primary neuronal cells = experiment: Neuronal cell death under OGD condition by trypan blue staining; conditions: OGD condition for 12 hours, FIG. 4C
# Procedure: (§8) Primary neuronal cells were cultured in a glucose and serum-free medium in a 5% or 1% oxygen incubator for 9, 12 and 24 hours to create an ischemic stroke-like environment on a cellular level, thereby inducing the neuronal cell death. Afterward, an expression level of the Pin1 protein was analyzed by immunocytochemistry and western blotting.
# (§9) In addition, after the neuronal cells were cultured under the OGD condition for 12 hours, the induction of the neuronal cell death was detected by trypan blue (0.4%) staining, which is shown in FIG. 4C.
# Pin1 protein [9] = experiment: Pin1 expression in MCAO mouse brain, administration after stroke (western blotting); assay type: in vivo; conditions: 3 mg/kg once by intravenous injection after MCAO, compared to control group, FIGS. 8C and 8D
# Procedure: as §2, §3
# [10] = system: middle cerebral artery occlusion (MCAO) animal model; experiment: Stroke inhibitory effect in MCAO animal model, administration before MCAO operation; assay type: in vivo; conditions: mouse, 3 mg/kg intraperitoneally twice before MCAO operation, compared to control group
# Excerpt: as §1
# Ischemic stroke was trigged in the mouse by intraperitoneally administering the juglone (3 mg/kg) twice and conducting an MCAO operation, and then the resultant mouse was compared with a control group mouse to which the juglone was not administered.
# FBW7 protein [11] = experiment: FBW7 expression in left hemisphere of MCAO mouse, administration before MCAO (western blotting); assay type: in vivo; conditions: 3 mg/kg intraperitoneally twice before MCAO, compared to control group, FIGS. 7C and 7D
# Procedure: as §2, §4, §5
# Pin1 protein [12] = experiment: Pin1 protein expression in primary neuronal cells in ischemic stroke-like environment (immunocytochemistry, western blotting); assay type: cell-based; conditions: OGD or GD condition, FIGS. 4A and 4B
# Procedure: as §8, §9
structure (smiles),measurement,setting,value
"C[C@H](NC(=O)Cc1cc(F)cc(F)c1)C(=O)N[C@H](C(=O)OC(C)(C)C)c1ccccc1 [DAPT, N-[N-(3,5-difluorophenacetyl)-1-alanyl]-S-phenylglycine t-butyl ester]",expression of NICD1 protein,NICD1 protein [1],increase in NICD1 was not found
"CCOC(=O)CN1C(=O)c2ccc3c4c(ccc(c24)C1=O)C(=O)N(CC(=O)OCC)C3=O [PiB, diethyl-1,3,6,8-tetrahydro-1,3,6,8-tetraoxobenzo phenanthroline-2,7-diacetate]",apoptosis (trypan blue),SH-SY5Y cells,decreased to a greater or less extent
"O=C1C=CC(=O)c2c(O)cccc21 [juglone, 5-hydroxy-1,4-naphthoquinone]",generation of ischemia,[2]; FIG. 8A,decreased
same,neurological deficits,[2]; FIG. 8B,decreased
same,expression of NICD1 protein,NICD1 protein [3],decreased
same,expression of Pin1 protein,Pin1 protein [4],decreased
same,NICD1 ubiquitination,NICD1 ubiquitination,increased again
same,expression of NICD1 protein,NICD1 protein [5],decreased
same,expression of FBW7 protein,FBW7 protein [6],increased
same,expression of NICD1 protein,NICD1 protein [7],decreased
same,expression of cleaved caspase-3 (CLCas-3) protein,[8],decreased
same,"apoptosis (neuronal cell death, trypan blue)",primary neuronal cells,reduced
same,expression of Pin1 protein,Pin1 protein [9],decreased
same,generation of ischemia,[10]; FIG. 7A,decreased
same,neurological deficits,[10]; FIG. 7B,decreased
same,expression of FBW7 protein,FBW7 protein [11],increased
same,Pin1 expression,Pin1 protein [12],reduced
same,apoptosis (trypan blue),SH-SY5Y cells,decreased to a greater or less extent
"S=C(SC(=S)N1CCCCC1)N1CCCCC1 [DTM, dipentamethylene thiuram monosulfide]",apoptosis (trypan blue),SH-SY5Y cells,decreased to a greater or less extent
